Data taken from EP1000059B1, “TRICYCLIC VASOPRESSIN AGONISTS” (Wyeth, priority 1997, dated 1999).
Counter-ions that a name gives are not always drawn.

Experiments:
Vasopressin V2 [1] = assay: Vasopressin V2 agonist effects of test compounds in normal conscious water-loaded rats; format: in vivo; details: oral dose of 10 mg/kg, urine collected for four hours, Sprague-Dawley (CD) rats; for Changes in Urinary Osmolality: osmolality changes expressed as percent of control; for Urine Volume (% decrease): percent decrease in urine volume vs. control, vehicle 20% DMSO in 2.5% preboiled corn starch
Text: Vasopressin V2 Agonist Effects of Test Compounds in Normal Conscious Water-Loaded Rats:
Male or female normotensive Sprague-Dawley rats (Charles River Laboratories, Inc., Kingston, NY) of 350-500 g body weight were supplied with standard rodent diet (Purina Rodent Lab. Chow 5001) and water ad libitum. On the day of test, rats were placed individually into metabolic cages equipped with devices to separate the feces from the urine and containers for collection of urine. A test compound or a reference agent was given at an oral dose of 10 mg/kg in a volume of 10 ml/kg. The vehicle used was 20% dimethylsulfoxide (DMSO) in 2.5% preboiled corn starch. Thirty minutes after dosing the test compound, rats were gavaged with water at 30 ml/kg into the stomach using a feeding needle. During the test, rats were not provided with water or food. Urine was collected for four hours after dosing of the test compound. At the end of four hours, urine volume was measured. Urinary osmolality was determined using a Fiske One-Ten Osmometer (Fiske Associates, Norwood, MA, 02062) or an Advanced CRYOMATIC Osmometer, Model 3C2 (Advanced Instruments, Norwood, MA). Determinations of Na^+, K^+ and Cl^- ion were carried out using ion specific electrodes in a Beckman SYNCHRON EL-ISE Electrolyte System analyzer. The urinary osmolality should increase proportionally. In the screening test, two rats were used for each compound. If the difference in the urine volume of the two rats was greater than 50%, a third rat was used.

Vasopressin V2 [2] = assay: as above; format: in vivo; details: Sprague-Dawley (CD) rats; for Urine Volume (% decrease): percent decrease in urine volume vs. control, dose 1 mg/kg; for Changes in Urinary Osmolality: percent of control

SMILES	Changes in Urinary Osmolality (Vasopressin V2 [1])	Urine Volume (% decrease) (Vasopressin V2 [1])	further results
Cc1ccn(-c2ccc(C(=O)N3Cc4cccnc4N(C)c4ccccc43)c(C(F)(F)F)c2)n1 [Example 8, (5-Methyl-5,11-dihydro-pyrido[2,3-b][1,5]benzodiazepin-10-yl)-[4-(3-methyl-pyrazol-1-yl)-2-trifluoromethyl-phenyl]methanone]	298% of control	72	
Cc1ccnn1-c1ccc(C(=O)N2Cc3cccnc3Nc3ccccc32)c(C(F)(F)F)c1 [Example 6, (5,11-Dihydro-pyrido[2,3-b][1,5]benzodiazepin-10-yl)-[4-(5-methyl-pyrazol-1-yl)-2-trifluoromethyl-phenyl]-methanone solvate with 0.09 dichloromethane and 0.13 ethyl acetate]	103% of control	25	
Cc1ccn(-c2ccc(C(=O)N3Cc4cccnc4Nc4ccccc43)c(Cl)c2)n1 [Example 1, [2-Chloro-4-(3-methyl-pyrazol-1-yl)-phenyl]-(5,11-dihydro-pyrido [2,3-b] [1,5]benzodiazepin-6-yl)-methanone]	272% of control	80	
Cn1ccc(-c2ccc(C(=O)N3Cc4cccnc4Nc4ccccc43)c(Cl)c2)n1 [Example 18, [2-Chloro-4-(1-methyl-1-H-pyrazol-3-yl)-phenyl]-(5,11-dihydro-pyrido[2,3-b][1,5]benzodiazepin-10-yl)-methanone]	234% of control	76	
Cc1ccn(-c2ccc(C(=O)N3Cc4cccnc4Nc4ccccc43)c(Br)c2)n1 [Example 3, [2-Bromo-4-(3-methyl-pyrazol-1-yl)-phenyl]-(5,11-dihydro-pyrido[2,3-b] [1,5]benzodiazepin-6-yl)-methanone]	346% of control	85	
O=C(c1ccc(-n2ccc(C(F)(F)F)n2)cc1C(F)(F)F)N1Cc2cccnc2Nc2ccccc21 [Example 7, (5,11-Dihydro-pyrido[2,3-b][1,5]benzodiazepin-6-yl)-[2-trifluoromethyl-4-(3-trifluoromethyl-pyrazol-1-yl)-phenyl]-methanone]	283% of control	69	
O=C(c1ccc(-n2ccc(C(F)(F)F)n2)cc1Cl)N1Cc2cccnc2Nc2ccccc21 [Example 17, [2-Chloro-4-(3-trifluoromethyl-pyrazol-1-yl)-phenyl]-(5,11-dihydro-pyrido[2,3-b][1,5]benzodiazepin-6-yl)-methanone]	262% of control	72	
Cc1ccn(-c2ccc(C(=O)N3Cc4cccnc4Nc4ccccc43)c(F)c2)n1 [Example 9, (5,11-Dihydro-pyrido[2,3-b][1,5]benzodiazepin-10-yl)-[2-fluoro-4-(3-methyl-pyrazol-1-yl)-phenyl]-methanone 0.19 hydrate]	372% of control	59	
Cc1ccn(-c2ccc(C(=O)N3Cc4cccnc4Oc4ccccc43)c(Cl)c2)n1 [Example 16, [2-Chloro-4-(3-methyl-pyrazol-1-yl)-phenyl]-(11H-5-oxa-4,10-diazadibenzo[a,d]cyclohepten-10-yl)-methanone]	142% of control	41	
CN1c2ccccc2N(C(=O)c2ccc(-c3ccn(C)n3)cc2Cl)Cc2cccnc21 [Example 20, [2-Chloro-4-(1-methyl-1H-pyrazol-3-yl)-phenyl]-(5-methyl-5,11-dihydro-pyrido[2,3-b][1,5]benzodiazepin-10-yl)-methanone]	89% of control	10	
Cc1ccnn1-c1ccc(C(=O)N2Cc3cccnc3Nc3ccccc32)c(Cl)c1 [Example 2, [2-Chloro-4-(5-methyl-pyrazol-1-yl)-phenyl] (5,11-dihydro-pyrido[2,3-b] [1,5]benzodiazepin-6-yl)-methanone]	288% of control	61	
Cc1nc(-c2ccc(C(=O)N3Cc4cccnc4Nc4ccccc43)c(Cl)c2)n[nH]1 [Example 24, [2-Chloro-4-(5-methyl-1H-[1,2,4]triazol-3-yl)-phenyl]-(5,11-dihydro-pyrido[2,3-b][1,5]benzodiazepin-6-yl)-methanone]	615% of control	86	
Cc1ccn(-c2ccc(C)c(C(=O)N3Cc4cccnc4Nc4ccccc43)c2)n1 [Example 12, (5,11-Dihydro-pyrido[2,3-b][1,5]benzodiazepin-10-yl)-[2-methyl-5-(3-methyl-pyrazol-1-yl)-phenyl]-methanone]	101% of control	-2	
Cc1ccn(-c2ccc(C(=O)N3Cc4cccnc4N(C)c4ccccc43)c(Cl)c2)n1 [Example 11, [2-Chloro-4-(3-methyl-pyrazol-1-yl)-phenyl]-(5-methyl-5,11-dihydro-pyrido[2,3-b][1,5]benzodiazepin-10-yl)-methanone]	375% of control	71	
Cc1ccn(-c2cc(F)ccc2C(=O)N2Cc3cccnc3Nc3ccccc32)n1 [Example 10, (5,11-Dihydro-pyrido[2,3-b][1,5]benzodiazepin-10-yl)-[4-fluoro-2-(3-methyl-pyrazol-1-yl)-phenyl]-methanone solvate with 0.20 ethanol]	276% of control	63	
Cc1ccn(-c2ccc(C(=O)N3Cc4cccnc4Nc4ccccc43)c(C(F)(F)F)c2)n1 [Example 4, (5,11-Dihydro-pyrido[2,3-b][1,5]benzodiazepin-6-yl)-[4-(3-methyl-pyrazol-1-yl)-2-trifluoromethyl-phenyl]-methanone]	339% of control	87	
Cc1ccn(-c2ccc(C(=O)N3Cc4cccnc4Nc4ccccc43)c(C(F)(F)F)c2)n1 [Example 15, (5,11-Dihydro-pyrido[2,3-b][1,5]benzodiazepin-6-yl)-[4-(3-methyl-pyrazol-1-yl)-2-trifluoromethyl-phenyl]-methanone 1:1 salt with hydrochloric acid 0.10 dichloromethane solvate]			Urine Volume (% decrease) (Vasopressin V2 [2]; starch only): 98 (1 mg/kg) starch only % decrease; Changes in Urinary Osmolality (Vasopressin V2 [2]): 1363% of control
CC(C)(C)c1ccn(-c2ccc(C(=O)N3Cc4cccnc4Nc4ccccc43)c(C(F)(F)F)c2)n1 [Example 13, [4-(3-tert-Butyl-pyrazol-1-yl)-2-trifluoromethyl-phenyl]-(5,11-dihydro-pyrido[2,3-b][1,5]benzodiazepin-10-yl)-methanone]	106% of control	6	
Cc1ccn(-c2ccc(C(=O)N3Cc4cccnc4Nc4ccccc43)c(C(F)(F)F)c2)n1 [Example 14, (5,11-Dihydro-pyrido[2,3-b][1,5]benzodiazepin-6-yl)-[4-(3-methyl-pyrazol-1-yl)-2-trifluoromethyl-phenyl]-methanone 1:1 salt with methanesulfonic acid solvate with 0.15 hexane]			Urine Volume (% decrease) (Vasopressin V2 [2]): 83 (1 mg/kg) % decrease; Changes in Urinary Osmolality (Vasopressin V2 [2]; same row's urine volume cell prints 1 mg/kg (footnote says 10 mg/kg)): 321% of control
